Like-named read-outs stand apart in the source and are kept apart here.
What was measured:
HEK-293 = assay: MTT cell viability assay, HEK-293; format: cell-based, human; details: non-cancerous, read-out: IC50 (µM) in Cultured Cells HEK-293
Description: (§1) Cell lines used for cytotoxicity assays included MCF-7 (human breast adenocarcinoma), A549 (human lung adenocarcinoma), K562 (human chronic myelogenous leukemia) and HEK-293 (human embryonic kidney) cells and were obtained from the Iranian Biological Resource Center, Tehran, Iran. MES-SA-DX5 multidrug resistant human uterine sarcoma, over-expressing P-gp and their parental non-resistant MES-SA cell lines were purchased from Sigma-Aldrich (St. Louis, MO, USA). All cells, except for HEK-293, were cultured in RPMI 1640 supplemented with 10% FBS and 100 units/mL penicillin-streptomycin at 37 °C in humidified air containing 5% CO2. HEK-293 cells were maintained in DMEM-F12 medium containing L-glutamine 2 mM supplemented with FBS and penicillin-streptomycin. MES-SA-DX5 cells were maintained in media containing 100 nM doxorubicin in order to ensure that only drug-resistant cells continue to grow.
(§2) Cytotoxicity of the test compounds were evaluated by MTT assay. In this method, reduction of MTT, a yellow tetrazolium salt to the purple formazan, by cellular dehydrogenase enzymes is determined as an index of cell viability. Cancer cells were seeded into 96-well plates (3–5 × 10^3 cells/well) and incubated for 24 h at 37 °C. Afterwards, four different concentrations of synthesized derivatives were added in triplicate and the cells were incubated at 37 °C for another 72 h, after which the media was replaced with MTT solution at a concentration of 0.5 mg/mL was added for MTT assay. After another 4h, formazan crystals were dissolved in 200 μL DMSO for 90 min and absorbance was measured at a wavelength of 570 nm with background correction at 650 nm using a microplate reader (model 680, Bio-Rad, Hercules, CA, USA) and IC50 for each compound was calculated with CurveExpert version 1.34 for Windows.

K562 = assay: MTT cell viability assay, K562; format: cell-based, human; details: read-out: IC50 (µM) in Cultured Cells K562
Description: as §1, §2

MES-SA-DX5 cells = assay: Cell cycle analysis by propidium iodide (PI)-RNase flow cytometry; format: cell-based, human; parameters: Sub G1: unit not given here; details: 24 h
Method: The analysis of cells in different phases of cell cycle and sub-G1 was performed using propidium iodide (PI)-RNase assay by flow cytometry. MES-SA-DX5 cells were seeded in 12-well plates (1 × 10^6 cells/well) and treated with different concentrations of synthesized compounds for 24 h. The cells were then collected, washed with PBS, and fixed with 70% ethanol overnight at –20 °C. After at least 24 h, fixed cells were washed with PBS and subsequently stained with a DNA staining solution containing PI 20 μg/mL and RNase 200 μg/mL at room temperature for 30 min in the dark. Twenty thousand cells of each sample were analyzed using a BD FACSCalibur flow cytometer (BD Biosciences, USA) and the amount of the cells in sub-G1, G0/G1, S, and G2/M phases were estimated using CellQuest (Becton Dickinson, San Jose, CA, USA) software.
Therefore, it could be concluded that these compounds cause cytotoxicity in drug resistant MES-SA-DX5 cells by induction of apoptosis in these cells.
Figure 3 Effect of synthesized derivatives on cell cycle alterations in MES-SA-DX5 drug resistant cells. The cells in different phases of cell cycle were monitored using propidium iodide (PI)-RNase assay by flow cytometry. MES-SA-DX5 cells were seeded in 12-well plates (1 × 10^6 cells/well) and treated with different concentrations of synthesized compounds for 24 h. The cells were then collected, washed with PBS and fixed with 70% ethanol overnight at –20 °C. After at least 24 h, fixed cells were washed with PBS and subsequently stained with a DNA staining solution containing PI 20 μg/mL and RNase 200 μg/mL at room temperature for 30 min in the dark. Twenty thousand cells of each sample were analyzed using a FACS Calibur flow cytometer (BD Biosciences, USA). Representative histograms of cells treated with synthesized compounds are shown. An increase in sub-G1 phase cells could be observed after treatment with A1, A2, B1, and B2 compounds.

MCF-7 = assay: MTT cell viability assay, MCF-7; format: cell-based, human; details: read-out: IC50 (µM) in Cultured Cells MCF-7
Description: as §1, §2

MES-SA = assay: MTT cell viability assay, MES-SA; format: cell-based, human; details: for IC50: MTT, 72 h, parental non-resistant, read-out: IC50 (µM) in Cultured Cells MES-SA
Description: as §1, §2

MES-SA-DX5 = assay: MTT cell viability assay, MES-SA-DX5; format: cell-based, human; details: multidrug resistant, P-gp overexpressing, read-out: IC50 (µM) in Cultured Cells MES-SA-DX5
Description: as §1, §2

A-549 = assay: MTT cell viability assay, A-549; format: cell-based, human; details: read-out: IC50 (µM) in Cultured Cells A-549
Description: as §1, §2

Row | IC50 (K562; Homo sapiens, K562, 72 h) [µM] | IC50 (MCF-7; Homo sapiens, MCF7, 72 h) [µM] | IC50 (A-549; Homo sapiens, A549, 72 h) [µM] | melting point [°C] | Compound | IC50 (HEK-293; Homo sapiens, HEK293, 72 h) [µM] | IC50 (MES-SA; Homo sapiens, MES-SA) [µM] | IC50 (MES-SA-DX5; Homo sapiens, MES-SA/Dx5, 72 h) [µM] | IC50 (HEK-293; 72 h) [µM] | other results
1 | 0.042 ± 0.006 | 0.115 ± 0.042 | 0.575 ± 0.127 |  | COc1cccc2c1C(=O)c1c(O)c3c(c(O)c1C2=O)C[C@@](O)(C(=O)CO)C[C@@H]3O[C@H]1C[C@H](N)[C@H](O)[C@H](C)O1 [Doxorubicin, reference compound] | 0.009 ± 0.002 | 0.01 ± 0.002 | 2.2 ± 0.3 |  | G0/G1 (MES-SA-DX5 cells; 2.5 µM): 34.23 ± 3.3; G2/M (MES-SA-DX5 cells; 2.5 µM): 52.10 ± 4.4; S (MES-SA-DX5 cells; 2.5 µM): 12.57 ± 1.4; Sub G1 (MES-SA-DX5 cells; 2.5 µM): 1.08 ± 0.2; G0/G1 (MES-SA-DX5 cells; 5 µM): 21.50 ± 2.5; G2/M (MES-SA-DX5 cells; 5 µM): 64.13 ± 4.2; S (MES-SA-DX5 cells; 5 µM): 12.57 ± 1.7; Sub G1 (MES-SA-DX5 cells; 5 µM): 1.81 ± 0.3; sensitivity of parental MES-SA cells compared to resistant cells (MES-SA; MES-SA vs MES-SA-DX5, MTT): more than 200 times
2 | > 100 | > 100 | > 100 | 160 | COc1cc(C2C(C(=O)Nc3csc(C)n3)=C(C)NC3=C2C(=O)CCC3)cc(OC)c1OC (stereo not shown) [Compound A4, 2-Methyl-N-(2-methylthiazol-4-yl)-5-oxo-4-(3,4,5-trimethoxyphenyl)-1,4,5,6,7,8-hexahydroquinoline-3-carboxamide] |  |  | > 100 |  | 
3 |  |  |  |  | N.N.[Cl][Pt][Cl] [Cisplatin, cisplatin, reference compound] |  |  |  | 1.1 ± 0.5 | IC50 (K562; 72 h): 3.3 ± 2.3 µM; IC50 (MCF-7; 72 h): 26.3 ± 7.9 µM; IC50 (MES-SA): 1.2 ± 0.1 µM; IC50 (MES-SA-DX5; 72 h): 8.6 ± 0.5 µM; IC50 (A-549; 72 h): 14 ± 0.5 µM
4 | > 100 | > 100 | > 100 | 222 | COc1ccc(C2C(C(=O)Nc3csc(C)n3)=C(C)NC3=C2C(=O)CCC3)cc1OC (stereo not shown) [Compound A8, 4-(3,4-Dimethoxyphenyl)-2-methyl-N-(2-methylthiazol-4-yl)-5-oxo-1,4,5,6,7,8-hexahydroquinoline-3-carboxamide] |  |  | > 100 |  | 
5 | 50.2 ± 2.6 | > 100 | > 100 | 241 | Cc1nc(NC(=O)c2c(C)nc3c(c2-c2cccc(Cl)c2)C(=O)CCC3)cs1 [Compound B3, 4-(3-Chlorophenyl)-2-methyl-N-(2-methylthiazol-4-yl)-5-oxo-5,6,7,8-tetrahydroquinoline-3-carboxamide] | > 50 | > 100 | 85.2 ± 7.4 | > 100 | 
6 | 10.4 ± 1.5 | 89.5 ± 3.5 | 91 ± 4.6 | 251 | Cc1nc(NC(=O)c2c(C)nc3c(c2-c2ccc(Cl)cc2)C(=O)CCC3)cs1 [Compound B5, 4-(4-Chlorophenyl)-2-methyl-N-(2-methylthiazol-4-yl)-5-oxo-5,6,7,8-tetrahydroquinoline-3-carboxamide] | > 50 | > 100 | 62.3 ± 5.5 | 64.2 ± 1.1 | G0/G1 (MES-SA-DX5 cells; 10 µM): 53.87 ± 0.7; G2/M (MES-SA-DX5 cells; 10 µM): 27.27 ± 2.6; S (MES-SA-DX5 cells; 10 µM): 18.13 ± 1.9; Sub G1 (MES-SA-DX5 cells; 10 µM): 0.62 ± 0.1; G0/G1 (MES-SA-DX5 cells; 25 µM): 55.43 ± 1.3; G2/M (MES-SA-DX5 cells; 25 µM): 26.07 ± 2.7; S (MES-SA-DX5 cells; 25 µM): 17.73 ± 1.3; Sub G1 (MES-SA-DX5 cells; 25 µM): 0.69 ± 0.1; G0/G1 (MES-SA-DX5 cells; 100 µM): 57.58 ± 0.9; G2/M (MES-SA-DX5 cells; 100 µM): 26.87 ± 0.9; S (MES-SA-DX5 cells; 100 µM): 13.62 ± 0.8
7 | 32.9 ± 5.1 | > 100 | > 100 | 166 | COc1ccc(-c2c(C(=O)Nc3csc(C)n3)c(C)nc3c2C(=O)CCC3)cc1 [Compound B7, 4-(4-Methoxyphenyl)-2-methyl-N-(2-methylthiazol-4-yl)-5-oxo-5,6,7,8-tetrahydroquinoline-3-carboxamide] |  |  | > 100 |  | 
8 | > 100 | > 100 | > 100 | 251 | CCOc1cc(C2C(C(=O)Nc3csc(C)n3)=C(C)NC3=C2C(=O)CCC3)ccc1O (stereo not shown) [Compound A6, 4-(3-Ethoxy-4-hydroxyphenyl)-2-methyl-N-(2-methylthiazol-4-yl)-5-oxo-1,4,5,6,7,8-hexahydroquinoline-3-carboxamide] |  |  | > 100 |  | 
9 | 56.4 ± 7 | > 100 | > 100 | 253 | CC1=C(C(=O)Nc2csc(C)n2)C(c2cccc(Cl)c2)C2=C(CCCC2=O)N1 (stereo not shown) [Compound A3, 4-(3-Chlorophenyl)-2-methyl-N-(2-methylthiazol-4-yl)-5-oxo-1,4,5,6,7,8-hexahydroquinoline-3-carboxamide] | > 50 | > 100 | 78 ± 4 | 93.7 ± 11.9 | G0/G1 (MES-SA-DX5 cells; 10 µM): 50.35 ± 4.5; G2/M (MES-SA-DX5 cells; 10 µM): 23.25 ± 1.6; S (MES-SA-DX5 cells; 10 µM): 18.23 ± 2.6; Sub G1 (MES-SA-DX5 cells; 10 µM): 0.51 ± 0.1; G0/G1 (MES-SA-DX5 cells; 25 µM): 56.18 ± 1.2; G2/M (MES-SA-DX5 cells; 25 µM): 23.08 ± 1.0; S (MES-SA-DX5 cells; 25 µM): 19.70 ± 2.0; Sub G1 (MES-SA-DX5 cells; 25 µM): 0.97 ± 0.2; G0/G1 (MES-SA-DX5 cells; 100 µM): 53.64 ± 1.4; G2/M (MES-SA-DX5 cells; 100 µM): 29.46 ± 1.8; S (MES-SA-DX5 cells; 100 µM): 13.31 ± 1.0
10 | > 100 | > 100 | > 100 | 267 | CCOc1cc(-c2c(C(=O)Nc3csc(C)n3)c(C)nc3c2C(=O)CCC3)ccc1O [Compound B6, 4-(3-Ethoxy-4-hydroxyphenyl)-2-methyl-N-(2-methylthiazol-4-yl)-5-oxo-5,6,7,8-tetrahydroquinoline-3-carboxamide] |  |  | > 100 |  | 
11 | > 100 | > 100 | > 100 | 238 | COc1cc(-c2c(C(=O)Nc3csc(C)n3)c(C)nc3c2C(=O)CCC3)cc(OC)c1OC [Compound B4, 2-Methyl-N-(2-methylthiazol-4-yl)-5-oxo-4-(3,4,5-trimethoxyphenyl)-5,6,7,8-tetrahydroquinoline-3-carboxamide] |  |  | > 100 |  | 
12 | > 100 | > 100 | > 100 | 185 | COc1ccc(C2C(C(=O)Nc3csc(C)n3)=C(C)NC3=C2C(=O)CCC3)cc1 (stereo not shown) [Compound A7, 4-(4-Methoxyphenyl)-2-methyl-N-(2-methylthiazol-4-yl)-5-oxo-1,4,5,6,7,8-hexahydroquinoline-3-carboxamide] |  |  | > 100 |  | 
13 |  |  |  |  | 4-(3,4-Dimethoxyphenyl)-2-methyl-N-(5-methylthiazol-2-yl)-5-oxo-5,6,7,8-tetrahydroquinoline-3-carboxamide [Compound B8] |  |  |  |  | IC50 (K562; 72 h): 67.5 ± 8 µM; IC50 (MCF-7; 72 h): > 100 µM; IC50 (MES-SA-DX5; 72 h): > 100 µM; IC50 (A-549; 72 h): > 100 µM
